Values joined by “and” are separate entries in the source; they are usually repeats but may differ in a detail not shown here. Equal entries are not always repeated.

One test concerns the target T1, DNA topoisomerase II (Homo sapiens) (UniProt P11388+Q02880). The test is described as follows: Ability to form intracellular covalent DNA topoisomerase II complex; activity expressed as the percentage of cellular protein-DNA complex formed (exp-1). In kind it is cell-based.
`COc1cc([C@@H]2c3cc4c(cc3C(Nc3ccccc3)[C@H]3COC(=O)[C@H]23)OCO4)cc(O)c1O` (stereo partly specified) yielded a Complex formation of 105%.

In the next test the test system is Nucleic Acid. The test is described as follows: Ability to form intracellular covalent DNA topoisomerase II complex; activity expressed as the percentage of cellular protein-DNA complex formed (exp-2). In kind it is functional, cell-based.
On to `COc1cc([C@@H]2c3cc4c(cc3C(Nc3ccccc3)[C@H]3COC(=O)[C@H]23)OCO4)cc(O)c1O` (stereo partly specified), for which the Complex formation was 128%.

The target in the next test is T1, DNA topoisomerase II (Homo sapiens). As to the kind of experiment: Percentage of intracellular covalent DNA-topoisomerase II complexes formed. In kind it is cell-based.
Turning to `CCOC(=O)c1ccc(NC2c3cc(O)c(O)cc3[C@@H](c3cc(OC)c(O)c(OC)c3)[C@H]3C(=O)OC[C@H]23)cc1` (stereo partly specified), the Complex formation amounted to 138%. Still for that read-out and setting: next, `COc1cc([C@@H]2c3cc4c(cc3[C@@H](NCCN3CCCCC3)[C@H]3COC(=O)[C@H]23)OCO4)cc(OC)c1O`: 190% and 183%; `CCOC(=O)c1ccc(NC2c3cc(OC)c(OC)cc3[C@@H](c3cc(OC)c(OC)c(OC)c3)[C@H]3C(=O)OC[C@H]23)cc1` (stereo partly specified): 9%; `COc1cc([C@@H]2c3cc4c(cc3[C@@H](NCc3ccc(C(F)(F)F)cc3)[C@H]3COC(=O)[C@H]23)OCO4)cc(OC)c1O`: 99%.

In turn, `COc1cc([C@@H]2c3cc4c(cc3[C@@H](Nc3ccc(F)cc3)[C@H]3COC(=O)[C@H]23)OCO4)cc(OC)c1O` came in with a Complex formation of 213%. On the same count and under the same terms, next, `COc1cc([C@@H]2c3cc4c(cc3[C@@H](NCc3cccc(C#N)c3)[C@H]3COC(=O)[C@H]23)OCO4)cc(OC)c1O`: 225%; `COc1cc([C@@H]2c3cc4c(cc3[C@@H](Oc3ccc(F)cc3)[C@H]3COC(=O)[C@H]23)OCO4)cc(OC)c1O`: 57%.

The compound `CCCN[C@@H]1c2cc3c(cc2[C@@H](c2cc(OC)c(O)c(OC)c2)[C@H]2C(=O)OC[C@@H]21)OCO3` returned a Complex formation of 69.7%. On the same count and under the same terms, under `COc1cc([C@@H]2c3cc4c(cc3C(Nc3ccc(Cl)cc3)[C@H]3COC(=O)[C@H]23)OCO4)cc(O)c1O` (stereo partly specified) stands 77%; under `COc1cc([C@@H]2c3cc4c(cc3C(Nc3ccc(C(C)=O)cc3)[C@H]3COC(=O)[C@H]23)OCO4)cc(O)c1O` (stereo partly specified), 147%.

As for `COc1cc([C@@H]2c3cc4c(cc3[C@@H](Nc3ccc(Oc5ccccc5)cc3)[C@H]3COC(=O)[C@H]23)OCO4)cc(OC)c1O`, the Complex formation amounted to 97%.

Compound `COc1cc([C@@H]2c3cc4c(cc3[C@@H](Nc3cccc(O)c3)[C@H]3COC(=O)[C@H]23)OCO4)cc(OC)c1O` showed a Complex formation of 290%. The same measure, in the same setting: next, `COc1cc([C@@H]2c3cc4c(cc3[C@@H](Nc3ccc(O)cc3)[C@H]3COC(=O)[C@H]23)OCO4)cc(OC)c1O`: 211%. On the same count and under the same terms, next, `COc1cc([C@@H]2c3cc4c(cc3C(Nc3ccc([N+](=O)[O-])cc3)[C@H]3COC(=O)[C@H]23)OCO4)cc(O)c1O` (stereo partly specified): 200%; `COc1cc([C@@H]2c3cc4c(cc3[C@@H](Nc3cccc(C#N)c3)[C@H]3COC(=O)[C@H]23)OCO4)cc(OC)c1O`: 137%. Still for that read-out and setting: under `COc1cc([C@@H]2c3cc4c(cc3[C@@H](NCc3cccc(Cl)c3)[C@H]3COC(=O)[C@H]23)OCO4)cc(OC)c1O` stands 159%; under `COc1cc([C@@H]2c3cc4c(cc3[C@@H](Nc3cc([N+](=O)[O-])ccc3O)[C@H]3COC(=O)[C@H]23)OCO4)cc(OC)c1O`, 15%.

As for `COc1cc([C@@H]2c3cc(O)c(O)cc3[C@@H](Nc3ccccc3)[C@H]3COC(=O)[C@H]23)cc(OC)c1O`, the Complex formation was 4%. Regarding `COc1cc2c(cc1OC)[C@@H](c1cc(OC)c(O)c(OC)c1)[C@H]1C(=O)OC[C@@H]1C2Nc1ccc([N+](=O)[O-])cc1` (stereo partly specified), the Complex formation was 75%. For the compound `COc1cc([C@@H]2c3cc4c(cc3[C@@H](NC(=O)Nc3ccc(F)cc3)[C@H]3COC(=O)[C@H]23)OCO4)cc(OC)c1O`, the Complex formation was found to be 118%. Turning to `COc1cc([C@@H]2c3cc4c(cc3[C@@H](Oc3ccc(O)cc3)[C@H]3COC(=O)[C@H]23)OCO4)cc(OC)c1O`, the Complex formation was found to be 34%. The same measure, in the same setting: next, `CCOC(=O)c1ccc(N[C@@H]2c3cc4c(cc3[C@@H](c3cc(OC)c(O)c(OC)c3)[C@H]3C(=O)OC[C@@H]32)OCO4)cc1`: 207%; `CCOC(=O)c1ccccc1N[C@@H]1c2cc3c(cc2[C@@H](c2cc(OC)c(O)c(OC)c2)[C@H]2C(=O)OC[C@@H]21)OCO3`: 4%. The same measure, in the same setting: next, `COc1cc([C@@H]2c3cc4c(cc3[C@@H](OC(=O)c3cccc(N)c3)[C@H]3COC(=O)[C@H]23)OCO4)cc(OC)c1O`: 100%.

These data come from ChEMBL document CHEMBL1135425, “Antitumor agents. 213. Modeling of epipodophyllotoxin derivatives using variable selection k nearest neighbor QSAR method” (J Med Chem, 2002).
